Legend:
[1] = target: Mitogen-activated protein kinase kinase kinase 13 (Homo sapiens) (UniProt O43283); details: Compound concentration 1000.0 nM
[2] = target: Androgen receptor (Rattus norvegicus) (UniProt P15207); test: TESTOST/RA Eurofins-Panlabs selectivity data (BI); details: Compound concentration 10.0 uM
[3] = target: Somatostatin receptor type 4 (Homo sapiens) (UniProt P31391); test: SST4_HU Cerep selectivity data (BI); details: Compound concentration 20.0 uM
[4] = target: Histamine H1 receptor (Homo sapiens) (UniProt P35367); test: H1/PYRIL/HS Cerep selectivity data (BI); details: Compound concentration 20.0 uM
Chain of Histamine H1 receptor (Homo sapiens) (P35367 whole entry): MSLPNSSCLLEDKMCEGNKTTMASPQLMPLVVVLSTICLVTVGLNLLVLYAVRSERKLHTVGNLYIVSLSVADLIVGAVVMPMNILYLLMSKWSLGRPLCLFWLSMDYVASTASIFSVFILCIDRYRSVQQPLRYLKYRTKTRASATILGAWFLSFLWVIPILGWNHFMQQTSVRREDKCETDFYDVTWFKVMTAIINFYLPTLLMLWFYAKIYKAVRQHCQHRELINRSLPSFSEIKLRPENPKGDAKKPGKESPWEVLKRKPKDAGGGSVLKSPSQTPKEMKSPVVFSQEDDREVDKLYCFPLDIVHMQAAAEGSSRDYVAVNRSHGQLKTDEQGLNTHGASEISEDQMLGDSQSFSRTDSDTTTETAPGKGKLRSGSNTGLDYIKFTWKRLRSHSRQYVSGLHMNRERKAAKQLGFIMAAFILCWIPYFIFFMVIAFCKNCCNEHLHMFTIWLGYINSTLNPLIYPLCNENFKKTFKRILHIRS

[5] = tested on: Platelet-derived growth factor receptor alpha (Homo sapiens), P16234 [V561D]; test: PDGFRA V561D Invitrogen selectivity data (BI); details: Compound concentration 3.0 uM
[6] = target: Tyrosine-protein kinase Lck (Homo sapiens) (UniProt P06239); test: LCK Invitrogen selectivity data (BI); details: Compound concentration 3.0 uM
Chain of Tyrosine-protein kinase Lck (Homo sapiens) (P06239 2-509 limits assumed): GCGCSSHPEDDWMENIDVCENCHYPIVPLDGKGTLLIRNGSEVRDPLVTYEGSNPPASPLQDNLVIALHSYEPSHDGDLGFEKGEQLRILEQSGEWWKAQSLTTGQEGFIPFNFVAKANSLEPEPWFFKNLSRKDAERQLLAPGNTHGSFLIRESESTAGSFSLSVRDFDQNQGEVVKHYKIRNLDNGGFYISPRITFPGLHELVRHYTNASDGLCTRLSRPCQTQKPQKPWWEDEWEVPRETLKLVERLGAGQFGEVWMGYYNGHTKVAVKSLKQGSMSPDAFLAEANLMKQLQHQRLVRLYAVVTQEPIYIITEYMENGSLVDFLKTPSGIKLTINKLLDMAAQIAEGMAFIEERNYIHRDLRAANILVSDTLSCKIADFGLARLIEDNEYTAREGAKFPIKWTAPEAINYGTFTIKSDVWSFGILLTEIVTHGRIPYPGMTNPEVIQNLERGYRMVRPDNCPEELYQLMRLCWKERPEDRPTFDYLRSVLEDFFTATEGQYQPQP

[7] = target: 5-hydroxytryptamine receptor 1B (Homo sapiens) (UniProt P28222); details: Compound concentration 10.0 uM
[8] = target: D(3) dopamine receptor (Homo sapiens) (UniProt P35462); test: D3/HU Eurofins-Panlabs selectivity data (BI); details: Compound concentration 10.0 uM
Chain of D(3) dopamine receptor (Homo sapiens) (P35462 whole entry): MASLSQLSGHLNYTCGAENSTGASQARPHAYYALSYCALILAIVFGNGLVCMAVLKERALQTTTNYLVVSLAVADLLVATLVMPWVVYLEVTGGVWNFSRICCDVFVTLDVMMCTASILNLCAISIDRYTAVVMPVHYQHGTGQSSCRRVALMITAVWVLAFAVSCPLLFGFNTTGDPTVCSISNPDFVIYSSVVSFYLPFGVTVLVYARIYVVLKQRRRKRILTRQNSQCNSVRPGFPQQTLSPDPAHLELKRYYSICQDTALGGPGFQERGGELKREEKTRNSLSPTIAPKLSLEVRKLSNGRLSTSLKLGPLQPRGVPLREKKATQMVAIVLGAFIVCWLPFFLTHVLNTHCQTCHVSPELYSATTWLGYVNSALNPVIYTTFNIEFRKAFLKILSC

[9] = target: Sodium-dependent serotonin transporter (Homo sapiens) (UniProt P31645); test: 5HTTRANS/H Cerep selectivity data (BI); details: Compound concentration 20.0 uM
[10] = target: Urotensin-2 receptor (Homo sapiens) (UniProt Q9UKP6); test: UT1/H AG Cerep selectivity data (BI); details: filed as agonist, Compound concentration 20.0 uM
[11] = target: 5-hydroxytryptamine receptor 2B (Homo sapiens) (UniProt P41595); details: Compound concentration 10.0 uM
[12] = target: Cysteinyl leukotriene receptor 1 (Homo sapiens) (UniProt Q9Y271); test: LTD4/H Cerep selectivity data (BI); details: Compound concentration 20.0 uM
[13] = target: T1, Tyrosine-protein kinase JAK3 (Homo sapiens) (UniProt P52333); test: JAK3 Invitrogen selectivity data (BI); details: Compound concentration 3.0 uM
T1 sequence (whole entry): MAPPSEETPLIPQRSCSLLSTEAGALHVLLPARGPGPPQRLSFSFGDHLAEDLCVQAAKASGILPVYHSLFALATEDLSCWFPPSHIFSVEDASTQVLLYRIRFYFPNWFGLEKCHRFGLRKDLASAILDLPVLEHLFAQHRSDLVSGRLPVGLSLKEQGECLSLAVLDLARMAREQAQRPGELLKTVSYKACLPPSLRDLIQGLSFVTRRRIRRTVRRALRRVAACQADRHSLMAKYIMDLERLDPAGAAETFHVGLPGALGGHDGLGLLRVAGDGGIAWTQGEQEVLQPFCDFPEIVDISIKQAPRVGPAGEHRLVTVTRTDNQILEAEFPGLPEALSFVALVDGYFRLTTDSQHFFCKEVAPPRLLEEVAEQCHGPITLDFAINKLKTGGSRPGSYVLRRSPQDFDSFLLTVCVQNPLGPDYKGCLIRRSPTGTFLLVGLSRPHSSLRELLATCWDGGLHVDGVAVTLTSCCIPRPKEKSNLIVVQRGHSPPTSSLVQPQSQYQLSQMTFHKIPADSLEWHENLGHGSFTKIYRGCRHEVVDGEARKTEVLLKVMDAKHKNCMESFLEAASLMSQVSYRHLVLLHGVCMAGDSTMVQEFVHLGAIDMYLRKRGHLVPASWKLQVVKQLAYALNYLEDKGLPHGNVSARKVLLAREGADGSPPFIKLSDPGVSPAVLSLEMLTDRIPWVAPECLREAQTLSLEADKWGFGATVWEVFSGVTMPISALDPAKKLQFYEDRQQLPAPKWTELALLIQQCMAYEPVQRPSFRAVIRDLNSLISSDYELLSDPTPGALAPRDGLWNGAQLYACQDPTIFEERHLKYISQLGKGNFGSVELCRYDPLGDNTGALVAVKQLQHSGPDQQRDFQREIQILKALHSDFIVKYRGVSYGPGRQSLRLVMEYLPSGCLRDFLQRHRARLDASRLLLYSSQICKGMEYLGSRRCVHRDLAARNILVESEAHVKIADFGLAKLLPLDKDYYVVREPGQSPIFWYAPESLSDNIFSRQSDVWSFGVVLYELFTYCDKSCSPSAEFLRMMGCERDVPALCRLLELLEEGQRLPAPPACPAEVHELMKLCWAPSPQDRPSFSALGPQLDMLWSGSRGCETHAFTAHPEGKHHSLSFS

[14] = target: Serine/threonine-protein kinase 16 (Homo sapiens) (UniProt O75716); test: STK16 Invitrogen selectivity data (BI); details: Compound concentration 3.0 uM
[15] = target: Interstitial collagenase (Homo sapiens) (UniProt P03956); test: MMP1 (H) Cerep selectivity data (BI); details: Compound concentration 20.0 uM
Chain of Interstitial collagenase (Homo sapiens) (P03956 whole entry): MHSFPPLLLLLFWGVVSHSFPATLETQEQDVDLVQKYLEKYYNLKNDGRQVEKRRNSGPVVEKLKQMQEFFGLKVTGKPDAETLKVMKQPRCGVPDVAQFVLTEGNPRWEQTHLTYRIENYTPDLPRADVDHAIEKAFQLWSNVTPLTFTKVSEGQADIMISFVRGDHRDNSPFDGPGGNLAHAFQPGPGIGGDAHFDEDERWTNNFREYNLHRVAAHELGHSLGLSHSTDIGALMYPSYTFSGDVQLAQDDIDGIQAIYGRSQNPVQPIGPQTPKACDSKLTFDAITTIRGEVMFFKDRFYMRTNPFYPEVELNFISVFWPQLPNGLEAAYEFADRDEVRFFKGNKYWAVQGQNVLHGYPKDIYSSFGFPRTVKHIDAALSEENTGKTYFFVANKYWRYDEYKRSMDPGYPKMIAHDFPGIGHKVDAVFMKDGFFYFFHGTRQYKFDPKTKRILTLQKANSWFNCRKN

[16] = target: Type-2 angiotensin II receptor (Homo sapiens) (UniProt P50052); test: AT2/H Cerep selectivity data (BI); details: Compound concentration 20.0 uM
[17] = target: Casein kinase I isoform delta (Homo sapiens) (UniProt P48730); test: CSNK1D Invitrogen selectivity data (BI); details: Compound concentration 3.0 uM
[18] = target: T2, Mitogen-activated protein kinase kinase kinase 2 (Homo sapiens) (UniProt Q9Y2U5); test: MAP3K2 Invitrogen selectivity data (BI); details: Compound concentration 3.0 uM
T2 sequence (whole entry): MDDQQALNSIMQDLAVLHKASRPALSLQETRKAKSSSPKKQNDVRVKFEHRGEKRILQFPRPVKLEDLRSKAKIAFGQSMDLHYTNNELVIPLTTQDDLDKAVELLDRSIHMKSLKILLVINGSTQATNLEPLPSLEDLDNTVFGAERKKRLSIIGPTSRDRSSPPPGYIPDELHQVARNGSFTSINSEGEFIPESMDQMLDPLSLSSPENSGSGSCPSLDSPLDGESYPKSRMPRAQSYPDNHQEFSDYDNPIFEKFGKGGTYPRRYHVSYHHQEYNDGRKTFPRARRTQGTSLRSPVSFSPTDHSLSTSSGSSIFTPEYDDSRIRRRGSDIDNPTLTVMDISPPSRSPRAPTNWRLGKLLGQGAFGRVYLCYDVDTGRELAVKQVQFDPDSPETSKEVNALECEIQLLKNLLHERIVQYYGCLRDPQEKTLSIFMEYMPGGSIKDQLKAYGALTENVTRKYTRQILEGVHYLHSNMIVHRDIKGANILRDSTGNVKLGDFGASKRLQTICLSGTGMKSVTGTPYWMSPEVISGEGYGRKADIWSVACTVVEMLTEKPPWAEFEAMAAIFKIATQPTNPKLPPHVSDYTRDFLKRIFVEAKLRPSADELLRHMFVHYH

[19] = target: BDNF/NT-3 growth factors receptor (Homo sapiens) (UniProt Q16620); test: NTRK2 Invitrogen selectivity data (BI); details: Compound concentration 3.0 uM
[20] = tested on: Proto-oncogene tyrosine-protein kinase receptor Ret (Homo sapiens), P07949 [V804L]; test: RET V804L Invitrogen selectivity data (BI); details: Compound concentration 3.0 uM
Chain of Proto-oncogene tyrosine-protein kinase receptor Ret (Homo sapiens), P07949 [V804L] (P07949 whole entry V804L): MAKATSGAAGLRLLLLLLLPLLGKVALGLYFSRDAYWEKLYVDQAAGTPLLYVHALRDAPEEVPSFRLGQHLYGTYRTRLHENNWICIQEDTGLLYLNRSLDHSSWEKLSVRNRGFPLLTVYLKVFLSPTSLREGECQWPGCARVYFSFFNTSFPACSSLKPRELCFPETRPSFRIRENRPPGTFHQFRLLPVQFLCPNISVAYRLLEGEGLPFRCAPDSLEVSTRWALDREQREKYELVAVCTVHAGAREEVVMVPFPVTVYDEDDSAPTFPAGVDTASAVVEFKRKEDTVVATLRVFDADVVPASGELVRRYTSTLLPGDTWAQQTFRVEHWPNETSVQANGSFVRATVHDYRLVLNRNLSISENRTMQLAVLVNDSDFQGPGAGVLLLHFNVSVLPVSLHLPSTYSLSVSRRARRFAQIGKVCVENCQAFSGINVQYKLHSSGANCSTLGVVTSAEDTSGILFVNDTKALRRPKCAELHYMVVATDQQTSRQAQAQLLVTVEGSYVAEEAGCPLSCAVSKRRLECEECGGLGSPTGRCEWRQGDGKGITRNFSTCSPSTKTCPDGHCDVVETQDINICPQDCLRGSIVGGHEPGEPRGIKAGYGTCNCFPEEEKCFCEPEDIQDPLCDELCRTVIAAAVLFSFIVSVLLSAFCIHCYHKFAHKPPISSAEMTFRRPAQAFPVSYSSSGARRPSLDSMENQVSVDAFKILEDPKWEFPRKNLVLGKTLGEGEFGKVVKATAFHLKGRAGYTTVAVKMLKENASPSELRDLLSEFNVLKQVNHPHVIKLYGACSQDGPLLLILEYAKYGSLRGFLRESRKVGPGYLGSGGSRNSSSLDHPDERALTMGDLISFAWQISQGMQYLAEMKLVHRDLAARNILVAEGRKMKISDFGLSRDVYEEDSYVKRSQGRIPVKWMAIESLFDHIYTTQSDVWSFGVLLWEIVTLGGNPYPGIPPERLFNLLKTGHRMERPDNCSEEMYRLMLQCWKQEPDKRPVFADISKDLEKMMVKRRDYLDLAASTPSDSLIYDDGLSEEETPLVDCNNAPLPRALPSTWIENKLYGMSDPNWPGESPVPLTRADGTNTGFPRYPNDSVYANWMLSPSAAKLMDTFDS

[21] = target: MAP kinase-activated protein kinase 2 (Homo sapiens) (UniProt P49137); test: MAPKAPK2 Invitrogen selectivity data (BI); details: Compound concentration 3.0 uM
Chain of MAP kinase-activated protein kinase 2 (Homo sapiens) (P49137 whole entry, looked up): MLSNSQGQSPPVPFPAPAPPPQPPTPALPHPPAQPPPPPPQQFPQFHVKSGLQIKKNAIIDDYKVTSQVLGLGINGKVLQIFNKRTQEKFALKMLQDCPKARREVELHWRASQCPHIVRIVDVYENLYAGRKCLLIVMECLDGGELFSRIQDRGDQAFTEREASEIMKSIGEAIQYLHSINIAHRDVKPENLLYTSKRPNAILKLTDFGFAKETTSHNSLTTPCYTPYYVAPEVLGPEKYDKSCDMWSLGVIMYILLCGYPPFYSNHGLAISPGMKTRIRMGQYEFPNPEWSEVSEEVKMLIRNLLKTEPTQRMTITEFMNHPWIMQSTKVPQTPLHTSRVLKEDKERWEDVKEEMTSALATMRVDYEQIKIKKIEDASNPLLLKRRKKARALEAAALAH

[22] = target: Sphingosine kinase 1 (Homo sapiens) (UniProt Q9NYA1); test: SPHK1 Invitrogen selectivity data (BI); details: Compound concentration 3.0 uM

Chain of Mitogen-activated protein kinase kinase kinase 13 (Homo sapiens) (O43283 whole entry): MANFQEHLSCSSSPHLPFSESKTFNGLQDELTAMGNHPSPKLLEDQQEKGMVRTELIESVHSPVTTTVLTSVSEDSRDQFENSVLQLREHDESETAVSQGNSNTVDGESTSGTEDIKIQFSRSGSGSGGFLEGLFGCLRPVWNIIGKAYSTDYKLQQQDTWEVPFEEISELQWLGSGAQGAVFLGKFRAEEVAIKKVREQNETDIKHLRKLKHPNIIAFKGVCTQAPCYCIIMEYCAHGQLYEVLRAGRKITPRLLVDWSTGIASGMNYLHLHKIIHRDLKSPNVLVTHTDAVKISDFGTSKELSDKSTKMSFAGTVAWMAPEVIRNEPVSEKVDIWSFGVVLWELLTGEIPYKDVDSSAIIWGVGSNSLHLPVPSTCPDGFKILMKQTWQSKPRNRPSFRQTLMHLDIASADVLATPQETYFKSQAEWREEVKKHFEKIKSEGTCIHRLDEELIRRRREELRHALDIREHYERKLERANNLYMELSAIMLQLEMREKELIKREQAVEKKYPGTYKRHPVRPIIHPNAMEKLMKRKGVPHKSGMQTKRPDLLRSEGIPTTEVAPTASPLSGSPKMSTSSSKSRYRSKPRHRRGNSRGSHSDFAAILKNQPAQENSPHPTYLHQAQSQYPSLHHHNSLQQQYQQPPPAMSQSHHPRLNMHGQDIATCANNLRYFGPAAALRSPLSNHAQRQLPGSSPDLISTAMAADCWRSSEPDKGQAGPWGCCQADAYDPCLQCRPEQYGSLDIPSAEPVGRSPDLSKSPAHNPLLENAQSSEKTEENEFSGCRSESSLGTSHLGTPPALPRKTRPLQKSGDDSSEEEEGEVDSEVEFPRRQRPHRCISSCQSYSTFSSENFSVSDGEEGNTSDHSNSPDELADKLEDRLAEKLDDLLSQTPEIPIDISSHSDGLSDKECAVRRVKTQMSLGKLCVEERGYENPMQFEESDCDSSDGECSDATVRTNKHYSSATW
Chain of Somatostatin receptor type 4 (Homo sapiens) (P31391 whole entry): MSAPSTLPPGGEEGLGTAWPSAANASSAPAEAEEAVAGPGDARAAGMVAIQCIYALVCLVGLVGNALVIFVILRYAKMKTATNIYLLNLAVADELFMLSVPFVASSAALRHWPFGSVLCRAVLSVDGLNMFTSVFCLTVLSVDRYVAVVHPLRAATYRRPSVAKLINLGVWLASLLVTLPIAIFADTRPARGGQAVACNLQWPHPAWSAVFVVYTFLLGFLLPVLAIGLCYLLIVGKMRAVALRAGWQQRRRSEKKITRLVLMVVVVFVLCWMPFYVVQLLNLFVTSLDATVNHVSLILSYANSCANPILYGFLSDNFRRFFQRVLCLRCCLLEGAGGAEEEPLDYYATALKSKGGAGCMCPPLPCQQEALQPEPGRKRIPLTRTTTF

CN(C)C(=O)Cn1cc(-c2nc(C3(c4ccc(-c5cnc(N)nc5)cc4)CC3)no2)cn1 [BI 0153]
inactive: residual activity [1] 100%

CN(C)C(=O)Cn1cc(-c2nc([C@@](C)(c3ccc(-c4cnc(N)nc4)cc3)C3CC3)no2)cn1 [BI 665915]
inactive: residual activity [2] 99% | residual activity [3] 146% | residual activity [4] 89% | residual activity [5] 85% | residual activity [6] 91.5% | inhibition [7] -3.77% | residual activity [8] 97% | residual activity [9] 103% | residual activity [10] 99% | inhibition [11] -5.4% | residual activity [12] 101% | residual activity [13] 96.5% | residual activity [14] 98% | residual activity [15] 97% | residual activity [16] 98% | residual activity [17] 97% | residual activity [18] 97% | residual activity [19] 94.5% | residual activity [20] 72% | residual activity [21] 96.5% | residual activity [22] 95.5%
